The record followed here is ChEMBL document CHEMBL1146190, “Azadideoxyadenosine: synthesis, enzymology, and anti-HIV activity” (Bioorg Med Chem Lett, 2006).

In experiment [1] the test system is Human immunodeficiency virus 1. The experiment in a line: Antiviral activity against HIV1 TEKI. The settings on record: Human immunodeficiency virus 1, TEKI. In kind it is functional, organism-based.
Experiment [2] deals with Human immunodeficiency virus 1. The experiment in a line: Antiviral activity against HIV1 NL4-3. In kind it is functional, organism-based. As to conditions: Human immunodeficiency virus 1, NL4-3.
The subject of the next experiment is PBMC. The experiment in a line: Cytotoxicity against human PBMC. It counts as functional.

Consider `Nc1ncnc2c1ncn2[C@H]1CN[C@@H](CO)C1`, for which the IC50 in experiment [1] came out at 3.52 µM; in experiment [2], 3.11 µM. The compound also came in with a CC50 with PBMC of 46.6 µM.
On to `Cc1cn([C@H]2C[C@H](N=[N+]=[N-])[C@@H](CO)O2)c(=O)[nH]c1=O` [ZIDOVUDINE], for which the CC50 in the experiment on PBMC is more than 1 µM.

One may read the IC50 as the concentration at which inhibition is half-maximal. A word on the CC50: it is the concentration at which the toxic effect on the cells reaches its halfway point.
